Measurements reported in patent US9326973B2, “Hepatitis C virus inhibitors” (priority 2012, dated 2016).

These molecules were tested on HCV replicon, genotype-1a variant with glutamine 30 changed to glutamate in the NS5A protein (assay: microbe, parasite or virus in culture). Conditions: HCV replicon genotype 1a Q30E (Q→E) variant; test compound titrated with an NS5A-targeting compound (BMS-790052 fixed at 200 nM); ranking of synergist activity.
Format: cell-based, HCV genotype 1a
How it was run: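 Synergy was assessed by combining several fixed amounts of an NS5A-targeting compound with a titration of the second compound of interest.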

Row | SMILES | Fold-Synergistic 1a (Q30E)
1 | Cn1cccc1C(=O)N1CCC[C@H]1c1ncc(-c2ccc(-c3ccc(-c4cnc([C@@H]5CCCN5C(=O)c5cccn5C)[nH]4)cc3)cc2)[nH]1 [Compound S-175] | <10 fold
2 | O=C(C1CCCCCC1)N1CCC[C@H]1c1ncc(-c2ccc(-c3ccc(-c4cnc([C@@H]5CCCN5C(=O)C5CCCCCC5)[nH]4)cc3)cc2)[nH]1 [Compound S-176] | >10 fold
3 | CC(C)(C)C(=O)N1CCC[C@H]1c1ncc(-c2ccc(-c3ccc(-c4cnc([C@@H]5CCCN5C(=O)C(C)(C)C)[nH]4)cc3)cc2)[nH]1 [Compound S-177] | <10 fold
4 | O=C(Cc1ccccc1F)N1CCC[C@H]1c1ncc(-c2ccc(-c3ccc(-c4cnc([C@@H]5CCCN5C(=O)Cc5ccccc5F)[nH]4)cc3)cc2)[nH]1 [Compound S-178] | <10 fold
5 | C#CCCC(=O)N1CCC[C@H]1c1ncc(-c2ccc(-c3ccc(-c4cnc([C@@H]5CCCN5C(=O)CCC#C)[nH]4)cc3)cc2)[nH]1 [Compound S-179] | <10 fold
6 | CCCCC(=O)N1CCC[C@H]1c1ncc(-c2ccc(-c3ccc(-c4cnc([C@@H]5CCCN5C(=O)CCCC)[nH]4)cc3)cc2)[nH]1 [Compound S-180] | <10 fold
7 | CCCCCC(=O)N1CCC[C@H]1c1ncc(-c2ccc(-c3ccc(-c4cnc([C@@H]5CCCN5C(=O)CCCCC)[nH]4)cc3)cc2)[nH]1 [Compound S-181] | >10 fold
8 | O=C(c1cccs1)N1CCC[C@H]1c1ncc(-c2ccc(-c3ccc(-c4cnc([C@@H]5CCCN5C(=O)c5cccs5)[nH]4)cc3)cc2)[nH]1 [Compound S-182] | <10 fold
9 | O=C(c1ccsc1)N1CCC[C@H]1c1ncc(-c2ccc(-c3ccc(-c4cnc([C@@H]5CCCN5C(=O)c5ccsc5)[nH]4)cc3)cc2)[nH]1 [Compound S-183] | <10 fold
10 | O=C(c1ccccn1)N1CCC[C@H]1c1ncc(-c2ccc(-c3ccc(-c4cnc([C@@H]5CCCN5C(=O)c5ccccn5)[nH]4)cc3)cc2)[nH]1 [Compound S-184] | <10 fold
11 | O=C(c1cccnc1)N1CCC[C@H]1c1ncc(-c2ccc(-c3ccc(-c4cnc([C@@H]5CCCN5C(=O)c5cccnc5)[nH]4)cc3)cc2)[nH]1 [Compound S-185] | <10 fold
12 | NC(=O)CCC(=O)N1CCC[C@H]1c1ncc(-c2ccc(-c3ccc(-c4cnc([C@@H]5CCCN5C(=O)CCC(N)=O)[nH]4)cc3)cc2)[nH]1 [Compound S-186] | <10 fold
13 | O=C(c1ccnnc1)N1CCC[C@H]1c1ncc(-c2ccc(-c3ccc(-c4cnc([C@@H]5CCCN5C(=O)c5ccnnc5)[nH]4)cc3)cc2)[nH]1 [Compound S-187] | <10 fold
14 | Cc1ncccc1C(=O)N1CCC[C@H]1c1ncc(-c2ccc(-c3ccc(-c4cnc([C@@H]5CCCN5C(=O)c5cccnc5C)[nH]4)cc3)cc2)[nH]1 [Compound S-188] | <10 fold
15 | Cc1ccoc1C(=O)N1CCC[C@H]1c1ncc(-c2ccc(-c3ccc(-c4cnc([C@@H]5CCCN5C(=O)c5occc5C)[nH]4)cc3)cc2)[nH]1 [Compound S-189] | >10 fold
16 | CCCC(C)(C)C(=O)N1CCC[C@H]1c1ncc(-c2ccc(-c3ccc(-c4cnc([C@@H]5CCCN5C(=O)C(C)(C)CCC)[nH]4)cc3)cc2)[nH]1 [Compound S-190] | <10 fold
17 | Cc1cccc(C(=O)N2CCC[C@H]2c2ncc(-c3ccc(-c4ccc(-c5cnc([C@@H]6CCCN6C(=O)c6cccc(C)n6)[nH]5)cc4)cc3)[nH]2)n1 [Compound S-191] | <10 fold

Row | SMILES | Fold-Synergistic 1a (Q30E)
18 | COCCC(=O)N1CCC[C@H]1c1ncc(-c2ccc(-c3ccc(-c4cnc([C@@H]5CCCN5C(=O)CCOC)[nH]4)cc3)cc2)[nH]1 [Compound S-192] | <10 fold
19 | O=C(CC(F)(F)F)N1CCC[C@H]1c1ncc(-c2ccc(-c3ccc(-c4cnc([C@@H]5CCCN5C(=O)CC(F)(F)F)[nH]4)cc3)cc2)[nH]1 [Compound S-193] | <10 fold
20 | N#CC1(C(=O)N2CCC[C@H]2c2ncc(-c3ccc(-c4ccc(-c5cnc([C@@H]6CCCN6C(=O)C6(C#N)CC6)[nH]5)cc4)cc3)[nH]2)CC1 [Compound S-194] | <10 fold
21 | O=C(c1cncnc1)N1CCC[C@H]1c1ncc(-c2ccc(-c3ccc(-c4cnc([C@@H]5CCCN5C(=O)c5cncnc5)[nH]4)cc3)cc2)[nH]1 [Compound S-195] | <10 fold
22 | O=C(CCN1CCOCC1)N1CCC[C@H]1c1ncc(-c2ccc(-c3ccc(-c4cnc([C@@H]5CCCN5C(=O)CCN5CCOCC5)[nH]4)cc3)cc2)[nH]1 [Compound S-196] | <10 fold
23 | CC(C)(C)CC(=O)N1CCC[C@H]1c1ncc(-c2ccc(-c3ccc(-c4cnc([C@@H]5CCCN5C(=O)CC(C)(C)C)[nH]4)cc3)cc2)[nH]1 [Compound S-197] | <10 fold
24 | COc1ccc2c(C(=O)N3CCC[C@H]3c3ncc(-c4ccc(-c5ccc(-c6cnc([C@@H]7CCCN7C(=O)c7nccc8cc(OC)ccc78)[nH]6)cc5)cc4)[nH]3)nccc2c1 [Compound S-198] | >100 fold
25 | COc1cnc(C(=O)N2CCC[C@H]2c2ncc(-c3ccc(-c4ccc(-c5cnc([C@@H]6CCCN6C(=O)c6ncc(OC)c7ccccc67)[nH]5)cc4)cc3)[nH]2)c2ccccc12 [Compound S-199] | >100 fold
26 | O=C(c1ncc(Cl)c2ccccc12)N1CCC[C@H]1c1ncc(-c2ccc(-c3ccc(-c4cnc([C@@H]5CCCN5C(=O)c5ncc(Cl)c6ccccc56)[nH]4)cc3)cc2)[nH]1 [Compound S-200] | >100 fold
27 | COc1cccc2c(C(=O)N3CCC[C@H]3c3ncc(-c4ccc(-c5ccc(-c6cnc([C@@H]7CCCN7C(=O)c7nccc8c(OC)cccc78)[nH]6)cc5)cc4)[nH]3)nccc12 [Compound S-201] | >100 fold
28 | O=C(c1nccc2ccccc12)N1CCC[C@H]1c1ncc(-c2ccc(-c3ccc(-c4cnc([C@@H]5CCCN5C(=O)c5nccc6ccccc56)[nH]4)cc3)cc2)[nH]1 [Compound S-202] | >100 fold
29 | O=C(c1cccc2cnccc12)N1CCC[C@H]1c1ncc(-c2ccc(-c3ccc(-c4cnc([C@@H]5CCCN5C(=O)c5cccc6cnccc56)[nH]4)cc3)cc2)[nH]1 [Compound S-203] | <10 fold
30 | COc1ccc2c(C(=O)N3CCC[C@H]3c3ncc(-c4ccc(-c5ccc(-c6cnc([C@@H]7CCCN7C(=O)c7nc(Cl)cc8cc(OC)ccc78)[nH]6)cc5)cc4)[nH]3)nc(Cl)cc2c1 [Compound S-204] | >100 fold
31 | O=C(c1nccc2c(Cl)cccc12)N1CCC[C@H]1c1ncc(-c2ccc(-c3ccc(-c4cnc([C@@H]5CCCN5C(=O)c5nccc6c(Cl)cccc56)[nH]4)cc3)cc2)[nH]1 [Compound S-206] | >100 fold
32 | CC(C)(C)[C@H](NC(=O)C1CC(=O)c2ccccc2C1)c1nc(-c2ccc(-c3ccc(-c4c[nH]c([C@@H](NC(=O)C5CC(=O)c6ccccc6C5)C(C)(C)C)n4)cc3)cc2)c[nH]1 (stereo partly drawn) [Compound S-256] | >100 fold
33 | CC(C)(C)[C@H](NC(=O)C1CC(=O)c2ccccc21)c1nc(-c2ccc(-c3ccc(-c4c[nH]c([C@@H](NC(=O)C5CC(=O)c6ccccc65)C(C)(C)C)n4)cc3)cc2)c[nH]1 (stereo partly drawn) [Compound S-257] | >10 fold
